Data from patent publication US9029337B2, “Modulation of factor 7 expression” (Isis Pharmaceuticals, Inc., priority 2007, dated 2015).
Strand notation (5' to 3'): a small letter for the sugar, then the base; units joined by * are phosphorothioate-linked, units joined directly phosphodiester-linked; [ ] holds rarer units or linkages, { } end groups; capitals alone tell only the bases. e = 2'-O-(2-methoxyethyl) (MOE); [5mC] = 5-methylcytosine; d = 2'-deoxy (DNA)

Tested on: human Factor 7 mRNA
Assay: Antisense inhibition of human Factor 7 mRNA in HepB3 cells, 50 nM antisense oligonucleotide, lipofectin
Assay type: cell-based
Conditions: for % Inhibition: Table 6, 50 nM, lipofectin, approximately 24 hours; for % Inhibition of human Factor 7 mRNA levels: gapmers targeted to nucleobases 4868 to 4899 of SEQ ID NO: 1, Table 8
How it was run: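 Readout is percent reduction of Factor 7 message compared with untreated cells, after correction for total RNA content quantified by RIBOGREEN®. Cultures were seeded at 4,000 cells per well and treated for about 24 hours before RNA extraction.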

[1] = oligonucleotides targeted to nucleobases 13760 to 13789 of SEQ ID NO: 1 (Table 10)
[2] = oligonucleotides targeted to nucleobases 14707 to 14732 of SEQ ID NO: 1 (Table 11)
[3] = oligonucleotides targeted to nucleobases 15098 to 15122 of SEQ ID NO: 1 (Table 12)

Substance: 422257 (antisense e[5mC]*e[5mC]*dA*d[5mC]*d[5mC]*d[5mC]*dG*d[5mC]*d[5mC]*dG*dG*d[5mC]*dT*d[5mC]*dT*eG*e[5mC]*eT*e[5mC]*eA) [compound 422257]
- % Inhibition (human Factor 7 mRNA levels) [1]: 65%

Substance: 422258 (antisense eG*e[5mC]*d[5mC]*dA*d[5mC]*d[5mC]*d[5mC]*dG*d[5mC]*d[5mC]*dG*dG*d[5mC]*dT*d[5mC]*eT*eG*e[5mC]*eT*e[5mC]) [compound 422258]
- % Inhibition (human Factor 7 mRNA levels) [1]: 66%

Substance: 422259 (antisense e[5mC]*eG*d[5mC]*d[5mC]*dA*d[5mC]*d[5mC]*d[5mC]*dG*d[5mC]*d[5mC]*dG*dG*d[5mC]*dT*e[5mC]*eT*eG*e[5mC]*eT) [compound 422259]
- % Inhibition (human Factor 7 mRNA levels) [1]: 61%

Substance: 422260 (antisense eG*e[5mC]*dG*d[5mC]*d[5mC]*dA*d[5mC]*d[5mC]*d[5mC]*dG*d[5mC]*d[5mC]*dG*dG*d[5mC]*eT*e[5mC]*eT*eG*e[5mC]) [compound 422260]
- % Inhibition (human Factor 7 mRNA levels) [1]: 56%

Substance: 422261 (antisense eT*eG*d[5mC]*dG*d[5mC]*d[5mC]*dA*d[5mC]*d[5mC]*d[5mC]*dG*d[5mC]*d[5mC]*dG*dG*e[5mC]*eT*e[5mC]*eT*eG) [compound 422261]
- % Inhibition (human Factor 7 mRNA levels) [1]: 47%

Substance: 422262 (antisense e[5mC]*eT*dG*d[5mC]*dG*d[5mC]*d[5mC]*dA*d[5mC]*d[5mC]*d[5mC]*dG*d[5mC]*d[5mC]*dG*eG*e[5mC]*eT*e[5mC]*eT) [compound 422262]
- % Inhibition (human Factor 7 mRNA levels) [1]: 0%

Substance: 422263 (antisense eG*eG*dA*dA*dG*dA*dA*dG*dG*dG*dA*d[5mC]*dG*dG*dA*eA*eG*eG*eT*eG) [compound 422263]
- % Inhibition: 19%

Substance: 422264 (antisense e[5mC]*eG*dG*dA*dA*dG*dA*dA*dG*dG*dG*dA*d[5mC]*dG*dG*eA*eA*eG*eG*eT) [compound 422264]
- % Inhibition: 24%

Substance: 422265 (antisense eG*e[5mC]*dG*dG*dA*dA*dG*dA*dA*dG*dG*dG*dA*d[5mC]*dG*eG*eA*eA*eG*eG) [compound 422265]
- % Inhibition: 34%

Substance: 422266 (antisense e[5mC]*eG*d[5mC]*dG*dG*dA*dA*dG*dA*dA*dG*dG*dG*dA*d[5mC]*eG*eG*eA*eA*eG) [compound 422266]
- % Inhibition: 13%

Substance: 422267 (antisense eG*e[5mC]*dG*d[5mC]*dG*dG*dA*dA*dG*dA*dA*dG*dG*dG*dA*e[5mC]*eG*eG*eA*eA) [compound 422267]
- % Inhibition: 38%

Substance: 422268 (antisense eA*eG*d[5mC]*dG*d[5mC]*dG*dG*dA*dA*dG*dA*dA*dG*dG*dG*eA*e[5mC]*eG*eG*eA) [compound 422268]
- % Inhibition: 63%

Substance: 422269 (antisense eG*eA*dG*d[5mC]*dG*d[5mC]*dG*dG*dA*dA*dG*dA*dA*dG*dG*eG*eA*e[5mC]*eG*eG) [compound 422269]
- % Inhibition: 27%

Substance: 422270 (antisense eT*eG*dA*dG*d[5mC]*dG*d[5mC]*dG*dG*dA*dA*dG*dA*dA*dG*eG*eG*eA*e[5mC]*eG) [compound 422270]
- % Inhibition: 15%

Substance: 422271 (antisense e[5mC]*eT*dG*dA*dG*d[5mC]*dG*d[5mC]*dG*dG*dA*dA*dG*dA*dA*eG*eG*eG*eA*e[5mC]) [compound 422271]
- % Inhibition: 32%

Substance: 422272 (antisense eA*e[5mC]*dT*dG*dA*dG*d[5mC]*dG*d[5mC]*dG*dG*dA*dA*dG*dA*eA*eG*eG*eG*eA) [compound 422272]
- % Inhibition: 12%

Substance: 422273 (antisense eT*eA*d[5mC]*dT*dG*dA*dG*d[5mC]*dG*d[5mC]*dG*dG*dA*dA*dG*eA*eA*eG*eG*eG) [compound 422273]
- % Inhibition: 0%

Substance: 422274 (antisense eT*eT*dA*d[5mC]*dT*dG*dA*dG*d[5mC]*dG*d[5mC]*dG*dG*dA*dA*eG*eA*eA*eG*eG) [compound 422274]
- % Inhibition: 24%

Substance: 422275 (antisense eG*eT*dT*dA*d[5mC]*dT*dG*dA*dG*d[5mC]*dG*d[5mC]*dG*dG*dA*eA*eG*eA*eA*eG) [compound 422275]
- % Inhibition: 42%

Substance: 422276 (antisense eG*eG*dT*dT*dA*d[5mC]*dT*dG*dA*dG*d[5mC]*dG*d[5mC]*dG*dG*eA*eA*eG*eA*eA) [compound 422276]
- % Inhibition: 66%

Substance: 422277 (antisense e[5mC]*e[5mC]*dT*dG*dA*dG*dG*d[5mC]*d[5mC]*dA*dG*d[5mC]*dA*dG*dA*eT*e[5mC]*eA*e[5mC]*eG) [compound 422277]
- % Inhibition (human Factor 7 mRNA levels) [2]: 56%

Substance: 422278 (antisense eG*e[5mC]*d[5mC]*dT*dG*dA*dG*dG*d[5mC]*d[5mC]*dA*dG*d[5mC]*dA*dG*eA*eT*e[5mC]*eA*e[5mC]) [compound 422278]
- % Inhibition (human Factor 7 mRNA levels) [2]: 64%

Substance: 422279 (antisense eA*eG*d[5mC]*d[5mC]*dT*dG*dA*dG*dG*d[5mC]*d[5mC]*dA*dG*d[5mC]*dA*eG*eA*eT*e[5mC]*eA) [compound 422279]
- % Inhibition (human Factor 7 mRNA levels) [2]: 56%

Substance: 422280 (antisense e[5mC]*eA*dG*d[5mC]*d[5mC]*dT*dG*dA*dG*dG*d[5mC]*d[5mC]*dA*dG*d[5mC]*eA*eG*eA*eT*e[5mC]) [compound 422280]
- % Inhibition (human Factor 7 mRNA levels) [2]: 52%

Substance: 422281 (antisense eG*e[5mC]*dA*dG*d[5mC]*d[5mC]*dT*dG*dA*dG*dG*d[5mC]*d[5mC]*dA*dG*e[5mC]*eA*eG*eA*eT) [compound 422281]
- % Inhibition (human Factor 7 mRNA levels) [2]: 57%

Substance: 422282 (antisense eA*eG*d[5mC]*dA*dG*d[5mC]*d[5mC]*dT*dG*dA*dG*dG*d[5mC]*d[5mC]*dA*eG*e[5mC]*eA*eG*eA) [compound 422282]
- % Inhibition (human Factor 7 mRNA levels) [2]: 48%

Substance: 422283 (antisense e[5mC]*eA*dG*d[5mC]*dA*dG*d[5mC]*d[5mC]*dT*dG*dA*dG*dG*d[5mC]*d[5mC]*eA*eG*e[5mC]*eA*eG) [compound 422283]
- % Inhibition (human Factor 7 mRNA levels) [2]: 50%

Substance: 422284 (antisense e[5mC]*eA*d[5mC]*dA*d[5mC]*dA*dT*dG*dG*dA*dG*dT*d[5mC]*dA*dG*e[5mC]*eA*eT*e[5mC]*eG) [compound 422284]
- % Inhibition (human Factor 7 mRNA levels) [3]: 43%

Substance: 422285 (antisense eG*e[5mC]*dA*d[5mC]*dA*d[5mC]*dA*dT*dG*dG*dA*dG*dT*d[5mC]*dA*eG*e[5mC]*eA*eT*e[5mC]) [compound 422285]
- % Inhibition (human Factor 7 mRNA levels) [3]: 39%

Substance: 422286 (antisense eA*eG*d[5mC]*dA*d[5mC]*dA*d[5mC]*dA*dT*dG*dG*dA*dG*dT*d[5mC]*eA*eG*e[5mC]*eA*eT) [compound 422286]
- % Inhibition (human Factor 7 mRNA levels) [3]: 53%

Substance: 422287 (antisense e[5mC]*eA*dG*d[5mC]*dA*d[5mC]*dA*d[5mC]*dA*dT*dG*dG*dA*dG*dT*e[5mC]*eA*eG*e[5mC]*eA) [compound 422287]
- % Inhibition (human Factor 7 mRNA levels) [3]: 41%

Substance: 422288 (antisense eA*e[5mC]*dA*dG*d[5mC]*dA*d[5mC]*dA*d[5mC]*dA*dT*dG*dG*dA*dG*eT*e[5mC]*eA*eG*e[5mC]) [compound 422288]
- % Inhibition (human Factor 7 mRNA levels) [3]: 44%

Substance: 422289 (antisense eG*eA*d[5mC]*dA*dG*d[5mC]*dA*d[5mC]*dA*d[5mC]*dA*dT*dG*dG*dA*eG*eT*e[5mC]*eA*eG) [compound 422289]
- % Inhibition (human Factor 7 mRNA levels) [3]: 34%

Substance: 422290 (antisense eT*e[5mC]*dT*dG*d[5mC]*dA*dG*dG*dA*dG*d[5mC]*dG*dG*d[5mC]*d[5mC]*eT*eA*eA*eA*eT) [compound 422290]
- % Inhibition of human Factor 7 mRNA levels: 50%

Substance: 422291 (antisense eT*eT*d[5mC]*dT*dG*d[5mC]*dA*dG*dG*dA*dG*d[5mC]*dG*dG*d[5mC]*e[5mC]*eT*eA*eA*eA) [compound 422291]
- % Inhibition of human Factor 7 mRNA levels: 53%

Substance: 422293 (antisense eA*eG*dT*dT*d[5mC]*dT*dG*d[5mC]*dA*dG*dG*dA*dG*d[5mC]*dG*eG*e[5mC]*e[5mC]*eT*eA) [compound 422293]
- % Inhibition of human Factor 7 mRNA levels: 69%

Substance: 422297 (antisense e[5mC]*e[5mC]*d[5mC]*dG*dA*dG*dT*dT*d[5mC]*dT*dG*d[5mC]*dA*dG*dG*eA*eG*e[5mC]*eG*eG) [compound 422297]
- % Inhibition of human Factor 7 mRNA levels: 63%

Substance: 422298 (antisense eG*e[5mC]*d[5mC]*d[5mC]*dG*dA*dG*dT*dT*d[5mC]*dT*dG*d[5mC]*dA*dG*eG*eA*eG*e[5mC]*eG) [compound 422298]
- % Inhibition of human Factor 7 mRNA levels: 62%

Substance: 422299 (antisense eA*eG*d[5mC]*d[5mC]*d[5mC]*dG*dA*dG*dT*dT*d[5mC]*dT*dG*d[5mC]*dA*eG*eG*eA*eG*e[5mC]) [compound 422299]
- % Inhibition of human Factor 7 mRNA levels: 64%

Substance: 422300 (antisense eG*eA*dG*d[5mC]*d[5mC]*d[5mC]*dG*dA*dG*dT*dT*d[5mC]*dT*dG*d[5mC]*eA*eG*eG*eA*eG) [compound 422300]
- % Inhibition of human Factor 7 mRNA levels: 65%

Substance: 422301 (antisense eG*eG*dA*dG*d[5mC]*d[5mC]*d[5mC]*dG*dA*dG*dT*dT*d[5mC]*dT*dG*e[5mC]*eA*eG*eG*eA) [compound 422301]
- % Inhibition of human Factor 7 mRNA levels: 67%

Substance: 422302 (antisense eA*eG*dG*dA*dG*d[5mC]*d[5mC]*d[5mC]*dG*dA*dG*dT*dT*d[5mC]*dT*eG*e[5mC]*eA*eG*eG) [compound 422302]
- % Inhibition of human Factor 7 mRNA levels: 67%
